Experimental findings from patent US11472808B2, “Substituted pyrrolo[1,2-c]pyrimidines as hepatitis B antiviral agents” (Enanta Pharmaceuticals, Inc., priority 2019, dated 2022) are described below.

The experiment has as its system HBV. In words: HepAD38 anti-HBV assay: reduction of viral product accumulation (virion DNA qPCR, HBsAg/HBeAg ELISA). It counts as cell-based. To be noted: Hepatitis B virus, 120 h; HepAD38 cells; concentration reducing viral product accumulation by 50% relative to no drug controls; harvest five days after compound addition; read-out: HepAD38 EC50. The method in brief: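 Tetracycline-free HepAD38 cells treated 5 days with compound (1:200 DMSO dilution), or 8 days with media and compound refreshed on d2 and d5. Virion DNA quantified by qPCR; HBsAg or HBeAg by ELISA. EC50 is the concentration reducing viral product accumulation 50% versus no-drug controls.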
Consider `OC1(Cc2nnn[nH]2)CC2=C(c3ccn(C(F)F)n3)[C@H](c3ccc(F)cc3Cl)N=C(c3nccs3)N2C1` (stereo partly drawn) [Example 141], for which the half-maximal effective concentration (EC50) is greater than 400 nM. For the compound `CC(C)(O)[C@H]1CCCN1S(=O)(=O)N[C@H]1CC2=C(c3ccn(C(F)F)n3)[C@H](c3ccc(F)cc3Cl)N=C(c3nccs3)N2C1` [Example 284], the EC50 was less than 100 nM. In the case of `CCCNS(=O)(=O)N[C@H]1CC2=C(c3ccn(C(F)F)n3)[C@H](c3ccc(F)cc3Cl)N=C(c3nccs3)N2C1` [Example 77], the EC50 is less than 100 nM.

On to `O=C(N[C@H]1CC2=C(c3ccn(C(F)F)n3)[C@H](c3ccc(F)cc3Cl)N=C(c3nccs3)N2C1)N1CCN(S(=O)(=O)c2ccccc2)CC1` [Example 228], for which the EC50 is greater than 400 nM. On to `O=C(O)c1ccc(CS(=O)(=O)N[C@H]2CC3=C(c4ccn(C(F)F)n4)[C@H](c4ccc(F)cc4Cl)N=C(c4nccs4)N3C2)cc1` [Example 36], for which the EC50 is less than 100 nM. With `O=S(=O)(N[C@H]1CC2=C(c3ccn(C(F)F)n3)[C@H](c3ccc(F)cc3Cl)N=C(c3nccs3)N2C1)[C@H]1CC[C@](O)(c2cccnc2)CC1` [Example 105] the figure was less than 100 nM; with `O=C(N[C@H]1CC2=C(c3ccn(C(F)F)n3)[C@H](c3ccc(F)cc3Cl)N=C(c3nccs3)N2C1)C1CCCCC1` [Example 239], 100 to 400 nM; with `O=S(=O)(NCc1ccccn1)N[C@H]1CC2=C(c3ccn(C(F)F)n3)[C@H](c3ccc(F)cc3Cl)N=C(c3nccs3)N2C1` [Example 306], 100 to 400 nM. Regarding `O=S(=O)(N[C@H]1CC2=C(c3ccn(C(F)F)n3)[C@H](c3ccc(F)cc3Cl)N=C(c3nccs3)N2C1)c1cccc(C2CC2)n1` [Example 408], the EC50 was less than 100 nM.

As to `CC(O)[C@]1(F)CC2=C(c3ccn(C(F)F)n3)[C@H](c3ccc(F)cc3Cl)N=C(c3nccs3)N2C1` (stereo partly drawn) [Example 176], the EC50 was less than 100 nM.

For the compound `C#CC1(O)CCN(S(=O)(=O)N[C@H]2CC3=C(c4ccn(C(F)F)n4)[C@H](c4ccc(F)cc4Cl)N=C(c4cccs4)N3C2)CC1` [Example 265], the EC50 was less than 100 nM. With `O=C(O)c1ccc(Cl)c(S(=O)(=O)N[C@H]2CC3=C(c4ccn(C(F)F)n4)[C@H](c4ccc(F)cc4Cl)N=C(c4nccs4)N3C2)c1` [Example 27] the figure was 100 to 400 nM; with `O=S(=O)(Nc1ccncc1)N[C@H]1CC2=C(c3ccn(C(F)F)n3)[C@H](c3ccc(F)cc3Cl)N=C(c3nccs3)N2C1` [Example 83], 100 to 400 nM; with `COC(=O)c1ccc(CS(=O)(=O)N[C@H]2CC3=C(c4ccn(C(F)F)n4)[C@H](c4ccc(F)cc4Cl)N=C(c4nccs4)N3C2)cc1` [Example 34], less than 100 nM.

Take `O=S(=O)(C[C@]1(F)CC2=C(c3ccn(C(F)F)n3)[C@H](c3ccc(F)cc3Cl)N=C(c3nccs3)N2C1)c1ccccc1` [Example 195]: the EC50 is less than 100 nM. `OCCOC[C@]1(O)CC2=C(c3ccn(C(F)F)n3)[C@H](c3ccc(F)cc3Cl)N=C(c3nccs3)N2C1` [Example 110]: the EC50 was in the range of 100 to 400 nM. Then `C=CCOC[C@]1(O)CC2=C(c3ccn(C(F)F)n3)[C@H](c3ccc(F)cc3Cl)N=C(c3nccs3)N2C1` [Example 108], with 100 to 400 nM; and `Cc1ccc(C(=O)O)cc1S(=O)(=O)N[C@H]1CC2=C(c3ccn(C(F)F)n3)[C@H](c3ccc(F)cc3Cl)N=C(c3nccs3)N2C1` [Example 28], with 100 to 400 nM. Then `O=C(O)Cc1ccc(S(=O)(=O)N[C@H]2CC3=C(c4ccn(C(F)F)n4)[C@H](c4ccc(F)cc4Cl)N=C(c4nccs4)N3C2)cc1` [Example 37], with greater than 400 nM; and `CS(=O)(=O)CC(NS(=O)(=O)N[C@H]1CC2=C(c3ccn(C(F)F)n3)[C@H](c3ccc(F)cc3Cl)N=C(c3nccs3)N2C1)c1ccccn1` (stereo partly drawn) [Example 345], with less than 100 nM; and `O=S(=O)(C[C@@H]1CC2=C(c3ccn(C(F)F)n3)[C@H](c3ccc(F)cc3Cl)N=C(c3nccs3)N2C1)N1CCCCC1` [Example 298], with 100 to 400 nM. As for `O=C(O)CS(=O)(=O)N[C@H]1CC2=C(c3ccn(C(F)F)n3)[C@H](c3ccc(F)cc3Cl)N=C(c3nccs3)N2C1` [Example 18], the EC50 is greater than 400 nM. For `OCCOC[C@@]1(O)CC2=C(c3ccn(C(F)F)n3)[C@H](c3ccc(F)cc3Cl)N=C(c3nccs3)N2C1` [Example 111], the EC50 is greater than 400 nM.

For the compound `O=C(N[C@H]1CC2=C(c3ccn(C(F)F)n3)[C@H](c3ccc(F)cc3Cl)N=C(c3nccs3)N2C1)N1CCC(O)(c2ccccc2)CC1` [Example 242], the EC50 was in the range of 100 to 400 nM. With `C[C@@H](NC(=O)CC1(S(=O)(=O)N[C@H]2CC3=C(c4ccn(C(F)F)n4)[C@H](c4ccc(F)cc4Cl)N=C(c4nccs4)N3C2)CC1)c1ccccn1` [Example 373], the EC50 was less than 100 nM. With `COC(=O)[C@H]1C[C@H](S(=O)(=O)N[C@H]2CC3=C(c4ccn(C(F)F)n4)[C@H](c4ccc(F)cc4Cl)N=C(c4nccs4)N3C2)C1` [Example 14], the EC50 is 100 to 400 nM. With `O=S(=O)(N[C@H]1CC2=C(c3ccn(C(F)F)n3)[C@H](c3ccc(F)cc3Cl)N=C(c3nccs3)N2C1)c1ccc(F)c(F)c1` [Example 393], the EC50 was in the range of 100 to 400 nM.

Consider `Fc1ccc([C@@H]2N=C(c3nccs3)N3C[C@@H](Nc4ccc(-c5ccccn5)cc4)CC3=C2c2ccn(C(F)F)n2)c(Cl)c1` [Example 330], for which the EC50 fell in the range of 100 to 400 nM. On to `OC/C=C/[C@@]1(F)CC2=C(c3ccn(C(F)F)c3)[C@H](c3ccc(F)cc3Cl)N=C(c3nccs3)N2C1` [Example 175], for which the EC50 lay within 100 to 400 nM.

In the case of `O=C(N[C@H]1CC2=C(c3ccn(C(F)F)n3)[C@H](c3ccc(F)cc3Cl)N=C(c3nccs3)N2C1)C1CC1` [Example 236], the EC50 was less than 100 nM. Then `CC(C)(C)[Si](C)(C)OCC1(F)CC2=C(c3ccn(C(F)F)n3)[C@H](c3ccc(F)cc3Cl)N=C(c3nccs3)N2C1` (stereo partly drawn) [Example 164], with greater than 400 nM; and `O=S(=O)(N[C@H]1CC2=C(c3ccn(C(F)F)n3)[C@H](c3ccc(F)cc3Cl)N=C(c3nccs3)N2C1)c1cccc(Br)n1` [Example 366], with less than 100 nM. On to `CCC(=O)N[C@H]1CC2=C(c3ccn(C(F)F)n3)[C@H](c3ccc(F)cc3Cl)N=C(c3nccs3)N2C1` [Example 197], for which the EC50 is 100 to 400 nM.

With `CCOC(=O)/C=C/[C@]1(F)CC2=C(c3ccn(C(F)F)n3)[C@H](c3ccc(F)cc3Cl)N=C(c3nccs3)N2C1` [Example 172], the EC50 was 100 to 400 nM. As to `O=S(=O)(N[C@H]1CC2=C(c3ccn(C(F)F)n3)[C@H](c3ccc(F)cc3Cl)N=C(c3nccs3)N2C1)c1ccc(F)cc1` [Example 392], the EC50 lay within 100 to 400 nM. Consider `COC(=O)C1CCCN(C(=O)C2CCCN(CCS(=O)(=O)N[C@H]3CC4=C(c5ccn(C(F)F)n5)[C@H](c5ccc(F)cc5Cl)N=C(c5nccs5)N4C3)C2)C1` (stereo partly drawn) [Example 67], for which the 50% effective concentration (EC50) was greater than 400 nM. With `O=C(O)[C@H]1C[C@H](S(=O)(=O)N[C@H]2CC3=C(c4ccn(C(F)F)n4)[C@H](c4ccc(F)cc4Cl)N=C(c4nccs4)N3C2)C1` [Example 16] the figure was greater than 400 nM; with `CC(C)[C@]1(O)CC[C@H](c2ccc(S(=O)(=O)N[C@H]3CC4=C(c5ccn(C(F)F)n5)[C@H](c5ccc(F)cc5Cl)N=C(c5nccs5)N4C3)cc2)CC1` [Example 414], less than 100 nM. Then `O=S(=O)(N[C@H]1CC2=C(c3ccn(C(F)F)n3)[C@H](c3ccc(F)cc3Cl)N=C(c3nccs3)N2C1)[C@H]1C[C@@H]1c1ccccn1` [Example 390], with 100 to 400 nM.
